According to patent publication EP3154958B1, “PHOSPHATIDYLINOSITOL 3-KINASE INHIBITORS” (Gilead Sciences, Inc., priority 2014, dated 2015):

Experiments:
Type in all cases: biochemical
PI3Kβ = target: T1, PI3Kβ (Homo sapiens, UniProt P42338); assay: TR-FRET enzymatic activity assay, PI3Kβ; conditions: for IC50: recombinant heterodimeric PI3Kβ 25-50 pM, 2× Km ATP, 30 minutes at 25°C; for PI3Kγ/PI3Kβ ratio: ratio of IC50 values
T1 construct: made in house
Outline: (§1)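 Each PI3K isoform is tested in an enzymatic format. Signal comes from time-resolved fluorescence energy transfer.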

PI3Kδ = target: T2, PI3Kδ (Homo sapiens, UniProt O00329); assay: TR-FRET enzymatic activity assay, PI3Kδ; conditions: recombinant heterodimeric PI3Kδ 25-50 pM, 2× Km ATP, 30 minutes at 25°C
T2 construct: made in house
T2 sequence (O00329 whole entry): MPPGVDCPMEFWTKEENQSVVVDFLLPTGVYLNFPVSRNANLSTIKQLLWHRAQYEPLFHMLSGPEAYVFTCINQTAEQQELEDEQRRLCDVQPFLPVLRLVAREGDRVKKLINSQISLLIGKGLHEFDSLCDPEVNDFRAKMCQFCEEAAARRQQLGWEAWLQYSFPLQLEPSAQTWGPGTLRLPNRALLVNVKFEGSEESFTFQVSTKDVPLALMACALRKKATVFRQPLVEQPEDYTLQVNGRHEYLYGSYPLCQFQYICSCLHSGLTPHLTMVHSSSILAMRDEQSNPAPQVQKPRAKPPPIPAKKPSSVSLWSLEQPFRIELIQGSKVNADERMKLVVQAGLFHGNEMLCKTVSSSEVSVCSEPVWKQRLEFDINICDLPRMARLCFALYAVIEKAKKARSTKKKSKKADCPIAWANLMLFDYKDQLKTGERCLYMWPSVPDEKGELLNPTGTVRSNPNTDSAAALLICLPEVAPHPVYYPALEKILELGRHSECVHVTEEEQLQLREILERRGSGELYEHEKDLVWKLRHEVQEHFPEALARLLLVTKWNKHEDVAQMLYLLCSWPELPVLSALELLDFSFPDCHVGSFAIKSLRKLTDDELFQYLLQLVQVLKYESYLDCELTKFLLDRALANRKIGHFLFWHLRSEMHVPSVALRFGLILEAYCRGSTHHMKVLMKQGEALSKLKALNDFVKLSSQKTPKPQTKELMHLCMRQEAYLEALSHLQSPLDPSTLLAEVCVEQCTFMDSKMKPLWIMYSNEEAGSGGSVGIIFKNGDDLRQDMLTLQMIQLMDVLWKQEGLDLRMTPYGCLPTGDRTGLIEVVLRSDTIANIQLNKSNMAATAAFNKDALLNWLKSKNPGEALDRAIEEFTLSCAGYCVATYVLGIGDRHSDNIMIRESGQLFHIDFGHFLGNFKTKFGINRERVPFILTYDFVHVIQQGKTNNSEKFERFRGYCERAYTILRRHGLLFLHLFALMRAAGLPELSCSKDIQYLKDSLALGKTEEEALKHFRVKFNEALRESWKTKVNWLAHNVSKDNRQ
T2 sequence (P27986 whole entry partner): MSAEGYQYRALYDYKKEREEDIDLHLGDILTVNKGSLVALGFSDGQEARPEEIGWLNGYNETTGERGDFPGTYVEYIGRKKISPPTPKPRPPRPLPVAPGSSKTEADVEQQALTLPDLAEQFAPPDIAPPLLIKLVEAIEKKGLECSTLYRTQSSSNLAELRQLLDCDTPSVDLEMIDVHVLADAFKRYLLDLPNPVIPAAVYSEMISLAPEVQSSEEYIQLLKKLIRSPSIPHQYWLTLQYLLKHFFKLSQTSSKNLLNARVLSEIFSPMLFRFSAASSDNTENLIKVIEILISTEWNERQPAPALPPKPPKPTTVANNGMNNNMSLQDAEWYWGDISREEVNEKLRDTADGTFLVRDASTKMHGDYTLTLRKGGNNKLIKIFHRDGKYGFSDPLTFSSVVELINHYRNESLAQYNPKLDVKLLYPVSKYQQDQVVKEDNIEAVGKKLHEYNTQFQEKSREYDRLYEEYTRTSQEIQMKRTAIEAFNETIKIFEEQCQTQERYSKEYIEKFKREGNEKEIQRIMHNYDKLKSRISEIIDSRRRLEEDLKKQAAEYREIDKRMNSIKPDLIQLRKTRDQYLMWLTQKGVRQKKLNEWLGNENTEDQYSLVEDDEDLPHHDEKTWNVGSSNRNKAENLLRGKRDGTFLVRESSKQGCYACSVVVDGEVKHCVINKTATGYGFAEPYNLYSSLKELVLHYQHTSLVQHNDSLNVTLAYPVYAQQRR
Outline: as §1

PI3Kγ = target: T3, PI3Kγ (Homo sapiens, UniProt P48736); assay: TR-FRET enzymatic activity assay, PI3Kγ; conditions: recombinant heterodimeric PI3Kγ 2 nM, 2× Km ATP, 30 minutes at 25°C
T3 construct: made in house
T3 sequence (P48736 whole entry): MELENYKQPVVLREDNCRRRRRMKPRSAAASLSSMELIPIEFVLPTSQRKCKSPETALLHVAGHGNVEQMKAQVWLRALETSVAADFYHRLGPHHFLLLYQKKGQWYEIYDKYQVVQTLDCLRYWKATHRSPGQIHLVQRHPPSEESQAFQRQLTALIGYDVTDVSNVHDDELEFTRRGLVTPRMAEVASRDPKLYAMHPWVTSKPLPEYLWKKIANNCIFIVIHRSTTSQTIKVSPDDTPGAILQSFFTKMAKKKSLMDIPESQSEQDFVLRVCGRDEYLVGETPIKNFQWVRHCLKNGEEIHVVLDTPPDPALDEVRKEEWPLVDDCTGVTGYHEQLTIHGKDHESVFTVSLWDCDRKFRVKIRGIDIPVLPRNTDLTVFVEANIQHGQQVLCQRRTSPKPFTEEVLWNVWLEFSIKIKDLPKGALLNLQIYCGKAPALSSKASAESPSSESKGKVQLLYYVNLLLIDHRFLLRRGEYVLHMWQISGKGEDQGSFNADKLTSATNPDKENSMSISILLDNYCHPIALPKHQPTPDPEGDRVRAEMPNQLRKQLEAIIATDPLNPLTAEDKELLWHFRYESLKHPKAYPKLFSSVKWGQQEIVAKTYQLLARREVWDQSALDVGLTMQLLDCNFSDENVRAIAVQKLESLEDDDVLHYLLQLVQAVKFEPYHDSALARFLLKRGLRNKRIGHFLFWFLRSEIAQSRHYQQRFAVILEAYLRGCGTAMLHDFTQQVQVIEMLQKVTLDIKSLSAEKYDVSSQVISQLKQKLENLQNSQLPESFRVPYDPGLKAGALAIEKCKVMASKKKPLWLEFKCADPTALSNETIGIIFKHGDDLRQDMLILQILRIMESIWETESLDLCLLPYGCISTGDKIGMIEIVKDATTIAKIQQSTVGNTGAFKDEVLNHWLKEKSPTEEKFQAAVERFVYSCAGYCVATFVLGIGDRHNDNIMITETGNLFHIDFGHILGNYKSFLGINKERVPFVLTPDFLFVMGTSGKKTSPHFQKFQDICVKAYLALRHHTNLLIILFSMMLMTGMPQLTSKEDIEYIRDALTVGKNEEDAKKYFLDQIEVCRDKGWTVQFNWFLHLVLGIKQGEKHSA
T3 sequence (Q8WYR1 whole entry partner): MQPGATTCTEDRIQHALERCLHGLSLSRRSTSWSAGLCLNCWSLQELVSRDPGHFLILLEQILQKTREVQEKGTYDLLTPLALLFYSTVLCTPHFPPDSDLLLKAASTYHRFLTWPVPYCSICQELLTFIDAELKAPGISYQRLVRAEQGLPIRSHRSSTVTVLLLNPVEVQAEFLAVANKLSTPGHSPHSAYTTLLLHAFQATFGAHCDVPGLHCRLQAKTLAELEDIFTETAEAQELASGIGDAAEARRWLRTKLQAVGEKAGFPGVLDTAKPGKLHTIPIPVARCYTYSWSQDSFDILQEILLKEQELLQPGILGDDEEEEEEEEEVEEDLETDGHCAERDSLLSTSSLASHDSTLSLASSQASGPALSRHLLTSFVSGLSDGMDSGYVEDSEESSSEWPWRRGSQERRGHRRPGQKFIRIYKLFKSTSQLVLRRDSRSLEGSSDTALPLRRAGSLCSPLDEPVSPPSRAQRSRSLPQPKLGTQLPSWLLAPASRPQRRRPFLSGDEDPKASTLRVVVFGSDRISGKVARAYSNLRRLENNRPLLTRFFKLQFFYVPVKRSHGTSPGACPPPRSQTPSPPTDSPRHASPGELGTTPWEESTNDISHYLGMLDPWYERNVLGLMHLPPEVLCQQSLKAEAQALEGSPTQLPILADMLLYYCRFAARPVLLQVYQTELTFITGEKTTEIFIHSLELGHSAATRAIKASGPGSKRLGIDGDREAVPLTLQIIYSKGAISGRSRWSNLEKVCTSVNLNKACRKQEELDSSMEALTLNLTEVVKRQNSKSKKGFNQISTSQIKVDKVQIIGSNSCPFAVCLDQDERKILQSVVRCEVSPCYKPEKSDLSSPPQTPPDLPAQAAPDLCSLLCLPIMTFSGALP
Outline: as §1

T1 sequence (P42338 whole entry): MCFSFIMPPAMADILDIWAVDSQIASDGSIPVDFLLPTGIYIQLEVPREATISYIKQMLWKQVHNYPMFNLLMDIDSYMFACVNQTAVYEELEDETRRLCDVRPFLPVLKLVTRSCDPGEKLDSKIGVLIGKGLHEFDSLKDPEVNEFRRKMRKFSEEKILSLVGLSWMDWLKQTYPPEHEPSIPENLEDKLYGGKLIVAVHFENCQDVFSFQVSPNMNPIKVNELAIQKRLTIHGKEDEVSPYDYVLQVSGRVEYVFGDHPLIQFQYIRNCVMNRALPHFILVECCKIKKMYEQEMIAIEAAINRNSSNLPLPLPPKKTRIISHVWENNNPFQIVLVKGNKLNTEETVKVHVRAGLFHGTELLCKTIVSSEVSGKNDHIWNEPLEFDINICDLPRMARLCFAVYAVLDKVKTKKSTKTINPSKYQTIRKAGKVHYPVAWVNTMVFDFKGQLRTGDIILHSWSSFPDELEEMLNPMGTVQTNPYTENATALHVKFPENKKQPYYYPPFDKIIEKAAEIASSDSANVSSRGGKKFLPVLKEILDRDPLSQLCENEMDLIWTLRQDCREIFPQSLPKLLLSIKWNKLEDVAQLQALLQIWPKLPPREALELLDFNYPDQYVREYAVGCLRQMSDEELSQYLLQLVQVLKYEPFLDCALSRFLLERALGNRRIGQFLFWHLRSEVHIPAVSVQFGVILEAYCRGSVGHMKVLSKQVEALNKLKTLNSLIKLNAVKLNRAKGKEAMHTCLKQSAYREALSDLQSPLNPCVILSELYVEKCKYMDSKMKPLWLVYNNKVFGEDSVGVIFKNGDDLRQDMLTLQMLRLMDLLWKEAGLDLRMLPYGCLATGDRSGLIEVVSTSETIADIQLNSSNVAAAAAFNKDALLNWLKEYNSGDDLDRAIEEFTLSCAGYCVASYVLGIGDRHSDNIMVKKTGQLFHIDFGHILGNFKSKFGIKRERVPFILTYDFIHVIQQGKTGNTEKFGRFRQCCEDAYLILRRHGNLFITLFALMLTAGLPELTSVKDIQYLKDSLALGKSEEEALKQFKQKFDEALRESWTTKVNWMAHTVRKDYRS
T1 sequence (P27986 whole entry partner): as the sequence (P27986 whole entry partner) above

IC50 (PI3Kβ)	IC50 (PI3Kδ)	IC50 (PI3Kγ)	SMILES	PI3Kγ/PI3Kβ ratio (PI3Kβ)	PI3Kγ/PI3Kβ ratio (PI3Kβ; as stated in b147)
28 nM	13 nM	> 10000 nM	N#Cc1c(N)nc(N)nc1N[C@H](c1nc2c(F)ccc(F)c2c(=O)n1N1CCNCC1)C1CC1 [Compound 127, (S)-2,4-diamino-6-((cyclopropyl(5,8-difluoro-4-oxo-3-(piperazin-1-yl)-3,4-dihydroquinazolin-2-yl)methyl)amino)pyrimidine-5-carbonitrile]		
10 nM	14 nM	> 10000 nM	C[C@H](Nc1nc(N)nc(Cl)c1C#N)c1nc2cccc(Cl)c2c(=O)n1C1CCNCC1 [Compound 128, (S)-2-Amino-4-chloro-6-((1-(5-chloro-4-oxo-3-(piperidin-4-yl)-3,4-dihydroquinazolin-2-yl)ethyl)amino)pyrimidine-5-carbonitrile]		
120 nM	4 nM	5000 nM	C[C@H](Nc1nc(N)nc(N)c1C#N)c1nc2cccc(Cl)c2c(=O)n1N1CCC(N)CC1 [Compound 129, (S)-2,4-diamino-6-((1-(3-(4-aminopiperidin-1-yl)-5-chloro-4-oxo-3,4-dihydroquinazolin-2-yl)ethyl)amino)pyrimidine-5-carbonitrile]		
62 nM	1 nM	> 10000 nM	C[C@H](Nc1ncnc(N)c1C#N)c1nc2cccc(Cl)c2c(=O)n1N1CCC(N)C1 (stereo partly drawn) [Compound 130, 4-amino-6-(((1S)-1-(3-(3-aminopyrrolidin-1-yl)-5-chloro-4-oxo-3,4-dihydroquinazolin-2-yl)ethyl)amino)pyrimidine-5-carbonitrile]		
450 nM	6 nM	> 10000 nM	C[C@H](Nc1ncnc(N)c1C#N)c1nc2cccc(Cl)c2c(=O)n1N1CCC(N)CC1 [Compound 131, (S)-4-amino-6-((1-(3-(4-aminopiperidin-1-yl)-5-chloro-4-oxo-3,4-dihydroquinazolin-2-yl)ethyl)amino)pyrimidine-5-carbonitrile]		
1000 nM	250 nM	> 10000 nM	C[C@H](Nc1ncnc(N)c1C#Cc1ccc(F)cn1)c1nc2cccc(Cl)c2c(=O)n1C1CNC1 [Compound 132, (S)-2-(1-((6-amino-5-((5-fluoropyridin-2-yl)ethynyl)pyrimidin-4-yl)amino)ethyl)-3-(azetidin-3-yl)-5-chloroquinazolin-4(3H)-one]		
900 nM	75 nM	> 10000 nM	O=c1c2c(Cl)cccc2nc([C@@H]2CCCN2c2ncnn3ccnc23)n1N1CCNCC1 [Compound 133, (S)-5-chloro-2-(1-(imidazo[2,1-f][1,2,4]triazin-4-yl)pyrrolidin-2-yl)-3-(piperazin-1-yl)quinazolin-4(3H)-one]		
2200 nM	35 nM	> 10000 nM	C[C@H](Nc1ncnc(N)c1C#N)c1nc2cccc(Cl)c2c(=O)n1C1CCN(C2CCN(C)CC2)CC1 [Compound 134, (S)-4-amino-6-((1-(5-chloro-3-(1'-methyl-[1,4'-bipiperidin]-4-yl)-4-oxo-3,4-dihydroquinazolin-2-yl)ethyl)amino)pyrimidine-5-carbonitrile]		
4700 nM	70 nM	> 10000 nM	CCN1CCC(n2c([C@H](C)Nc3ncnc4[nH]cnc34)nc3cccc(Cl)c3c2=O)C1 (stereo partly drawn) [Compound 135, 2-((S)-1-((9H-purin-6-yl)amino)ethyl)-5-chloro-3-(1-ethylpyrrolidin-3-yl)quinazolin-4(3H)-one]		
192 nM	2 nM	259 nM	C[C@H](Nc1nc(N)nc(N)c1C#N)c1nc2cccc(Cl)c2c(=O)n1[C@H]1CCOC1 [Compound 136, 2,4-diamino-6-(((S)-1-(5-chloro-4-oxo-3-((S)-tetrahydrofuran-3-yl)-3,4-dihydroquinazolin-2-yl)ethyl)amino)pyrimidine-5-carbonitrile]		
47 nM	5 nM	229 nM	C[C@H](Nc1nc(N)nc(N)c1C#N)c1nc2cccc(Cl)c2c(=O)n1[C@@H]1CCOC1 [Compound 137, 2,4-diamino-6-(((S)-1-(5-chloro-4-oxo-3-((R)-tetrahydrofuran-3-yl)-3,4-dihydroquinazolin-2-yl)ethyl)amino)pyrimidine-5-carbonitrile]		
58 nM	1 nM	524 nM	N#Cc1c(N)nc(N)nc1N[C@H](c1nc2c(Cl)ccc(Cl)c2c(=O)n1C1CCC1)C1CC1 [Compound 138, (S)-2,4-diamino-6-((cyclopropyl(5,8-dichloro-3-cyclobutyl-4-oxo-3,4-dihydroquinazolin-2-yl)methyl)amino)pyrimidine-5-carbonitrile]		

More lines, now with the values behind:

SMILES	IC50 (PI3Kβ)	IC50 (PI3Kδ)	IC50 (PI3Kγ)	PI3Kγ/PI3Kβ ratio (PI3Kβ)	PI3Kγ/PI3Kβ ratio (PI3Kβ; as stated in b147)
C[C@H](Nc1nc(N)nc(N)c1Cl)c1nc2c(F)ccc(Cl)c2c(=O)n1N1CCN(Cc2ccccc2)CC1 [Compound 117, (S)-3-(4-benzylpiperazin-1-yl)-5-chloro-2-(1-((2,6-diamino-5-chloropyrimidin-4-yl)amino)ethyl)-8-fluoroquinazolin-4(3H)-one]	570 nM	220 nM	> 10000 nM		
Cc1nc(N)nc(N[C@@H](C)c2nc3c(F)ccc(Cl)c3c(=O)n2N2CCN(Cc3ccccc3)CC2)c1C#N [Compound 118, (S)-2-amino-4-((1-(3-(4-benzylpiperazin-1-yl)-5-chloro-8-fluoro-4-oxo-3,4-dihydroquinazolin-2-yl)ethyl)amino)-6-methylpyrimidine-5-carbonitrile]	14 nM	17 nM	650 nM		
C[C@H](Nc1nc(N)nc(N)c1C#N)c1nc2cccc(Cl)c2c(=O)n1C1CCN(CC(F)(F)F)C1 (stereo partly drawn) [Compound 119, 2,4-diamino-6-(((1S)-1-(5-chloro-4-oxo-3-(1-(2,2,2-trifluoroethyl)pyrrolidin-3-yl)-3,4-dihydroquinazolin-2-yl)ethyl)amino)pyrimidine-5-carbonitrile]	360 nM	14 nM	2900 nM		
C[C@H](Nc1ncnc2[nH]cnc12)c1nc2cccc(Cl)c2c(=O)n1C1CCN(C)CC1 [Compound 120, (S)-2-(1-((9H-purin-6-yl)amino)ethyl)-5-chloro-3-(1-methylpiperidin-4-yl)quinazolin-4(3H)-one]	1200 nM	14 nM	> 10000 nM		
N#Cc1c(N)nc(N)nc1N[C@H](c1nc2cccc(Cl)c2c(=O)n1N1CCOCC1)C1CC1 [Compound 121, (S)-2,4-diamino-6-(((5-chloro-3-morpholino-4-oxo-3,4-dihydroquinazolin-2-yl)(cyclopropyl)methyl)amino)pyrimidine-5-carbonitrile]	134 nM	2 nM	190 nM		
Nc1nc(N)c(Cl)c(N[C@H](c2nc3cccc(Cl)c3c(=O)n2N2CCOCC2)C2CC2)n1 [Compound 122, (S)-5-chloro-2-(cyclopropyl((2,6-diamino-5-chloropyrimidin-4-yl)amino)methyl)-3-morpholinoquinazolin-4(3H)-one]	1800 nM	19 nM	2200 nM		
C[C@H](Nc1nc(N)nc(N)c1C#N)c1nc2cccc(Cl)c2c(=O)n1N1CCN(C)CC1 [Compound 125, (S)-2,4-diamino-6-((1-(5-chloro-3-(4-methylpiperazin-1-yl)-4-oxo-3,4-dihydroquinazolin-2-yl)ethyl)amino)pyrimidine-5-carbonitrile]	5 nM	6 nM	350 nM		
C[C@H](Nc1nc(N)nc(N)c1C#N)c1nc2c(Cl)cc(F)cc2c(=O)n1N1CCNCC1 [Compound 126, (S)-2,4-diamino-6-((1-(8-chloro-6-fluoro-4-oxo-3-(piperazin-1-yl)-3,4-dihydroquinazolin-2-yl)ethyl)amino)pyrimidine-5-carbonitrile]	5 nM	4 nM	4900 nM		
C[C@H](Nc1nc(N)nc(N)c1C#N)c1nc2cccc(Cl)c2c(=O)n1-c1ccccc1 [Compound X, (S)-2,4-diamino-6-((1-(5-chloro-4-oxo-3-phenyl-3,4-dihydroquinazolin-2-yl)ethyl)amino)pyrimidine-5-carbonitrile, reference compound]	11 nM	0.2 nM	7 nM	0.6	less than 1 fold
